Laboratory results: patent US6365578B1, “Drug cominbations containing AZT” (Roger Williams General Hospital, priority 1990, dated 2002)
Like-named read-outs stand apart in the source and are kept apart here.

How the values were obtained:
[1] = tested on: Balb/C female athymic (nude) mice; conditions: 4 courses
Procedure: In vivo tests to assess the toxicity of various dosages of AZT and FUra were carried out on Balb/C female athymic (nude) mice.
(§1) The mice were divided into groups of 5-8 animals each and treated with different doses and schedules of FUra, AZT, or both in combination. FUra and AZT were dissolved in normal saline immediately before use and were administered by intraperitoneal bolus injection so that the desired dose was contained in 0.1 ml/10 g animal body weight. FUra was administered in doses corresponding to 80, 90 and 100 mg/kg weekly or 20, 25, and 30 mg/kg for 5 consecutive days with intervening 2 week rest periods. The AZT component was administered at doses of 300 or 600 mg/kg. In those cases where the two components were not administered simultaneously, the FUra component was administered first followed in approximately 2 hours with the AZT component. Toxicity was assessed by determination of mortality, changes in body weight, and changes in white blood cell counts (WBC). Animal body weights were recorded immediately before and twice weekly after initiation of treatment and weight change was calculated as a percentage of the initial body weight. To determine WBC, blood was collected from the orbital sinus in a heparinized Natelson pipette, and after appropriate dilution the cell number was determined electronically one week after each course of therapy. The tests were carried out in duplicate and the pooled number of animals per treatment group was 10-16.
In the control group the mice received no treatment; in group 2 they received 600 mg/kg of AZT; in group 3 they received 85 mg/kg of FUra; in group 4 they received 85 mg/kg of FUra followed at a 2 hour interval by 600 mg/kg of AZT; in group 5 the mice received 100 mg/kg of FUra alone. A total of 4 courses of administration were carried out, each in triplicate, and the pooled number of animals per treatment group corresponded to 23-30.

[2] = tested on: Balb/C female athymic (nude) mice; conditions: 2 courses
Procedure: as §1
A second series of toxicity tests were carried out using a different regimen with similar groups of animals as follows:
Group 1 was treated with 600 mg/kg of AZT for days 3 to 5 inclusive; Group 2 was treated with 20 mg/kg of FUra from days 1 to 5; Group 3 was treated with 20 mg/kg of FUra for days 1 to 5 and with 600 mg/kg of AZT for days 3 to 5; Group 4 was treated with 25 mg/kg of FUra for days 1 to 5. The medication was administered by intraperitoneal bolus, the AZT being administered two hours after FUra. The treatment was repeated every two weeks. A total of 2 courses were administered, the tests being carried out in triplicate and the pool number of animals per treatment group corresponded to 21-30.

mice = assay: LD10 of MTX in mice; type: in vivo; conditions: weekly

O=c1[nH]cc(F)c(=O)[nH]1 [FUra, 5-fluorouracil]
Mortality (percent dead on day 29 after starting treatment) ([1]; FUra 85 mg/kg i.p.): 25% | Mortality (percent dead on day 29 after starting treatment) ([1]; FUra 100 mg/kg i.p.): 60.8% | Mortality (percent dead on day 29 after starting treatment) ([2]; FUra 20 mg/kg i.p. days 1 to 5, repeated every two weeks): 0% | Mortality (percent dead on day 29 after starting treatment) ([2]; FUra 25 mg/kg i.p. days 1 to 5, repeated every two weeks): 12.5%

Cc1cn([C@H]2C[C@H](N=[N+]=[N-])[C@@H](CO)O2)c(=O)[nH]c1=O [AZT, 3′-azido-3′-deoxythymidine]
Mortality (percent dead on day 29 after starting treatment) ([1]; AZT 600 mg/kg i.p.): 0% | Mortality (percent dead on day 29 after starting treatment) ([2]; AZT 600 mg/kg i.p. days 3 to 5, repeated every two weeks): 0%

CN(Cc1cnc2nc(N)nc(N)c2n1)c1ccc(C(=O)N[C@@H](CCC(=O)O)C(=O)O)cc1 [MTX, methotrexate]
LD10 (mice): 87.5 mg/kg/wk
